Experimental data taken from ChEMBL document CHEMBL1139092, “Challenges in the development of mGluR5 positive allosteric modulators: the discovery of CPPHA” (Bioorg Med Chem Lett, 2007).

Assays:
Format in all cases: cell-based
[1] = target: T1, Metabotropic glutamate receptor 5 (Homo sapiens, UniProt P41594); assay: Activity at human mGluR5 expressed in CHO cells assessed as potentiation of glutamate response by FLIPR assay
Target sequence in this assay (P41594 whole entry): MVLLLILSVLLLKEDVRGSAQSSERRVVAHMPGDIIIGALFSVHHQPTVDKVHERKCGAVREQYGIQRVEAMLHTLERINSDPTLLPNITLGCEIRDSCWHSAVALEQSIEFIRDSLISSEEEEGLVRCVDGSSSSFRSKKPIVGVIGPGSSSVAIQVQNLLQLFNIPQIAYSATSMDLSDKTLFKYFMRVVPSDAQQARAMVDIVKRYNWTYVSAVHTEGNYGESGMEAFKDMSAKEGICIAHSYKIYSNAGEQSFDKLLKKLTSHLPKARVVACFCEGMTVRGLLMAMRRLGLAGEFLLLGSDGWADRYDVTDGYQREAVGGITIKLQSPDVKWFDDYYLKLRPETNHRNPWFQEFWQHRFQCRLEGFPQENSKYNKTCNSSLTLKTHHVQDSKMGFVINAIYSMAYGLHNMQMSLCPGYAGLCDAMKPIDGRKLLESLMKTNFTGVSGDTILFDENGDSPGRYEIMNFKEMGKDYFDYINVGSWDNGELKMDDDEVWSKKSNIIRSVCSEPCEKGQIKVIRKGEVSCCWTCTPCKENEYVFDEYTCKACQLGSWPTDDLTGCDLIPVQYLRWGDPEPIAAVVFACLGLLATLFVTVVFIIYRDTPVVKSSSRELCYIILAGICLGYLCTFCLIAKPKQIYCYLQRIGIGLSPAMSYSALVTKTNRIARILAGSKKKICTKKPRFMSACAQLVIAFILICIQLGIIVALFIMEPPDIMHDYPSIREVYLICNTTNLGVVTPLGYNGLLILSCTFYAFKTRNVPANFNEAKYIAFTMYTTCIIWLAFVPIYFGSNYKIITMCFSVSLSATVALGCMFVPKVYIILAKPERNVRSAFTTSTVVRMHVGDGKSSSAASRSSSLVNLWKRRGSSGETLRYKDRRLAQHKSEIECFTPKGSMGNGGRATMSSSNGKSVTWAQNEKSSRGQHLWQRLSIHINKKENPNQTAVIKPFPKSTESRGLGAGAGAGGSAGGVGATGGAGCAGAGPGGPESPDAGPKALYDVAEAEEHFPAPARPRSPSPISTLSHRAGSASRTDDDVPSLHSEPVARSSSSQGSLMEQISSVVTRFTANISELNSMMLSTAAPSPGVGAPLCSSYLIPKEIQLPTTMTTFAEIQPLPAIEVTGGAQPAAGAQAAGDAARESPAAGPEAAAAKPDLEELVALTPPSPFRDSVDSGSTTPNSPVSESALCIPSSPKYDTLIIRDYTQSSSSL

[2] = target: T1, Metabotropic glutamate receptor 5; assay: Activity at human mGluR5 expressed in CHO cells assessed as potentiation of glutamate response by FLIPR assay relative to glutamate
Target sequence in this assay (P41594 21-1212 limits assumed): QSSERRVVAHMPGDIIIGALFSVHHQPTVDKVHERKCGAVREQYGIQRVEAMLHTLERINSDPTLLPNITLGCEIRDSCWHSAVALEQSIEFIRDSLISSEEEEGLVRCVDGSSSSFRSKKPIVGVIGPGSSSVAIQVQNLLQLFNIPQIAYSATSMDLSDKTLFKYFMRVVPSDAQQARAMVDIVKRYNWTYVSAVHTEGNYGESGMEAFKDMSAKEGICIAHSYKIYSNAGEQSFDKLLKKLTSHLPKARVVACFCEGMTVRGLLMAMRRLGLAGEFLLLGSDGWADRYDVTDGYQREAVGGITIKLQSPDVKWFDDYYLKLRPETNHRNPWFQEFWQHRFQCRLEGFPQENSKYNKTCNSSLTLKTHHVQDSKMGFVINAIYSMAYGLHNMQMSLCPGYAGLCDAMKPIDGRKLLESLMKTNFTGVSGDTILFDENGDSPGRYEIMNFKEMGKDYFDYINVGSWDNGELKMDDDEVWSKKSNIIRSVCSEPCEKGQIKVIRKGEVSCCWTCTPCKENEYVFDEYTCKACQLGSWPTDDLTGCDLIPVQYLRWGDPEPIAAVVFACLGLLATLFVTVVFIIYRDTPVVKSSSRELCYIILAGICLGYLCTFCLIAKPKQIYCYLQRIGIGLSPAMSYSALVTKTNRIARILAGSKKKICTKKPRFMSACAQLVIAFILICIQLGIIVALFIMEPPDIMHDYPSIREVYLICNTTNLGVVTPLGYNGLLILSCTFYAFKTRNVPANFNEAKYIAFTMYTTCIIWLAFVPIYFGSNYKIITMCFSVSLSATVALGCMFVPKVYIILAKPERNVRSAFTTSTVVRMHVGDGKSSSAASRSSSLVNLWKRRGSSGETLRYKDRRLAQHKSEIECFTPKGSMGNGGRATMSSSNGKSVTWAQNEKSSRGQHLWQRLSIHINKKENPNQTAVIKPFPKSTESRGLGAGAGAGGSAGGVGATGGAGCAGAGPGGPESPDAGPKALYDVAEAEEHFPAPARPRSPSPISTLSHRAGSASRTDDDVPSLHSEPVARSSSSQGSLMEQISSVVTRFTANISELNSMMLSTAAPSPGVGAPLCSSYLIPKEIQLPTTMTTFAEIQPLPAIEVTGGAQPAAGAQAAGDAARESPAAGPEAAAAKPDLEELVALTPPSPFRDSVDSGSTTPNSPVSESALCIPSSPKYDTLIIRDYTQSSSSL

[3] = target: Metabotropic glutamate receptor 5 (Rattus norvegicus, UniProt P31424); assay: Activity at rat mGluR5 expressed in CHO cells assessed as potentiation of glutamate response by FLIPR assay
Chain of Metabotropic glutamate receptor 5 (Rattus norvegicus, UniProt P31424) (P31424 whole entry): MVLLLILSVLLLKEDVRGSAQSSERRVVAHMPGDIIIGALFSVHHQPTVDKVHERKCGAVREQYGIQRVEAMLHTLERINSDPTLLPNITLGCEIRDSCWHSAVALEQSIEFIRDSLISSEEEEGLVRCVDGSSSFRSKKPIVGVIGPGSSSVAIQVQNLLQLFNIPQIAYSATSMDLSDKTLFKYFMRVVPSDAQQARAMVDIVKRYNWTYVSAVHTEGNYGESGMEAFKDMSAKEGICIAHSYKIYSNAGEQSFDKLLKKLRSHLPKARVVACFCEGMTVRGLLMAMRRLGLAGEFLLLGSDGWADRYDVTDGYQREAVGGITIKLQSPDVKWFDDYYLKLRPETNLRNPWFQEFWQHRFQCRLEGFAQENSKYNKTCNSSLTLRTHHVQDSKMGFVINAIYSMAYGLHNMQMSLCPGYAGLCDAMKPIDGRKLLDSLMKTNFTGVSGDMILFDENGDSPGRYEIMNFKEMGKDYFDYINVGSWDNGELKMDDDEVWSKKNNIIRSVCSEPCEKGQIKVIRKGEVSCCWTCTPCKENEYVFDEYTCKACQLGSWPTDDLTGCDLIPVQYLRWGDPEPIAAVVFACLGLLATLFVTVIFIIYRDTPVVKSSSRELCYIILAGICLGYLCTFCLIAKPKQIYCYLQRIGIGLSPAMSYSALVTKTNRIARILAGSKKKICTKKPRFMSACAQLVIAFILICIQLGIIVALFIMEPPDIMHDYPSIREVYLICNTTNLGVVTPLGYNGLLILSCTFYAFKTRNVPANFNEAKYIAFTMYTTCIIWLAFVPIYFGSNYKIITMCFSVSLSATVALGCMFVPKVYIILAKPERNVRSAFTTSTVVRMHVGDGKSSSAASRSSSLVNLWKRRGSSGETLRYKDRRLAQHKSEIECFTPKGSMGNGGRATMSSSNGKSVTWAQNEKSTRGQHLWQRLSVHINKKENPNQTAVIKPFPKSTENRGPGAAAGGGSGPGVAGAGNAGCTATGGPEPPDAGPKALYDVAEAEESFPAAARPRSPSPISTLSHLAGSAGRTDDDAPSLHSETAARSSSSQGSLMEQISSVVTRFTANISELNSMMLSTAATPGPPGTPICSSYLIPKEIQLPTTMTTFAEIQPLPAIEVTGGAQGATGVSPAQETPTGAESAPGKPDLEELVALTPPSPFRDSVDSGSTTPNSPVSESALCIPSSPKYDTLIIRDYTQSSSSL

| Structure (SMILES) | EC50 [1] | Activity [2] | EC50 [3] | EC50 ([1]; cho) |
| --- | --- | --- | --- | --- |
| CCOc1cccc2c1C(=O)N(Cc1cc(Cl)ccc1NC(=O)c1ccccn1)C2=O | 0.28 µM | 4.5 |  |  |
| O=C(Nc1ccc(Br)cc1CN1C(=O)c2ccc(F)cc2C1=O)c1ccccn1 | 0.93 µM | 11.1 |  |  |
| O=C(Nc1ccccc1CN1C(=O)c2ccccc2C1=O)c1ccccn1 | 13.9 µM | 3.4 |  |  |
| O=C(CCc1cc(Cl)ccc1NC(=O)c1ccccn1)c1ccccc1 | 4.5 µM |  |  |  |
| O=C(Nc1cccc(F)c1CN1C(=O)c2ccccc2C1=O)c1ccccn1 | > 100 µM | 0.9 |  |  |
| COc1ccc2c(c1OC)C(=O)N(Cc1cc(Cl)ccc1NC(=O)c1ccccn1)C2=O | > 100 µM | 0.6 |  |  |
| Cc1ccc2c(c1C)C(=O)N(Cc1cc(Br)ccc1NC(=O)c1ccccn1)C2=O | > 100 µM | 0.6 |  |  |
| CCN(Cc1cc(Cl)ccc1NC(=O)c1ccccn1)C(=O)c1cc(Cl)cc(Cl)c1 | 0.47 µM | 5.9 |  |  |
| O=C(Nc1ccc(Cl)cc1CN1C(=O)c2ccc(F)cc2C1=O)c1ccccn1 | 0.33 µM | 4.6 |  |  |
| CCOc1cccc2c1C(=O)N(Cc1cc(Br)ccc1NC(=O)c1ccccn1)C2=O | 0.72 µM | 10.7 |  |  |
| COc1ccc2c(c1OC)C(=O)N(Cc1cc(Br)ccc1NC(=O)c1ccccn1)C2=O | > 100 µM | 0.6 |  |  |
| COc1ccc(NC(=O)c2ccccn2)c(CN2C(=O)c3ccccc3C2=O)c1 | 1.4 µM | 3.5 |  |  |
| Cc1ccc2c(c1C)C(=O)N(Cc1cc(Cl)ccc1NC(=O)c1ccccn1)C2=O | 2.2 µM | 3.7 |  |  |
| O=C(Nc1ccc(Cl)cc1CN1C(=O)c2ccccc2C1=O)C1CCCCC1 | 1.5 µM | 4.1 | > 1 µM |  |
| O=C(/C=C/c1cc(Cl)ccc1NC(=O)c1ccccn1)c1ccccc1 | 1.7 µM | 8 |  |  |

Next, values leading:

| EC50 [1] | Activity [2] | EC50 [3] | EC50 ([1]; cho) | Structure (SMILES) |
| --- | --- | --- | --- | --- |
| 5.7 µM | 2.9 | > 1 µM |  | O=C(Nc1ccc(Cl)cc1CN1C(=O)c2ccccc2C1=O)c1ccccc1[N+](=O)[O-] |
| > 100 µM | 0.6 | > 1 µM |  | O=C(Nc1ccc(Cl)cc1CN1C(=O)c2ccccc2C1=O)c1cccnn1 |
| 1.9 µM | 9.2 | > 1 µM |  | O=C(Nc1ccc(Cl)cc1CN1C(=O)c2ccccc2C1=O)c1cncs1 |
|  | 6.8 |  |  | O=C(Nc1ccc(Cl)cc1CN1C(=O)c2ccccc2C1=O)c1ccccn1 [listing 1 of 3 here] |
|  | 7.1 |  |  | O=C(Nc1ccc(Cl)cc1CN1C(=O)c2ccccc2C1=O)c1ccccc1O |
| 35 µM | 1.8 | > 1 µM |  | O=C(Nc1ccc(Cl)cc1CN1C(=O)c2ccccc2C1=O)c1cccnc1 |
| > 100 µM | 0.6 | > 1 µM |  | COc1ccccc1C(=O)Nc1ccc(Cl)cc1CN1C(=O)c2ccccc2C1=O |
|  |  |  | 0.25 µM | O=C(Nc1ccc(Cl)cc1CN1C(=O)c2ccccc2C1=O)c1ccccn1 [listing 2 of 3 here] |
| > 100 µM | 0.6 | > 1 µM |  | O=C(Nc1ccc(Cl)cc1CN1C(=O)c2ccccc2C1=O)c1ccccc1 |
| 0.25 µM |  |  |  | O=C(Nc1ccc(Cl)cc1CN1C(=O)c2ccccc2C1=O)c1ccccn1 [listing 3 of 3 here] |
| 1.5 µM | 1.6 | > 1 µM |  | COc1cccc(C(=O)Nc2ccc(Cl)cc2CN2C(=O)c3ccccc3C2=O)c1 |
| 0.75 µM | 7.6 | > 1 µM |  | O=C(Nc1ccc(Br)cc1CN1C(=O)c2ccccc2C1=O)c1ccccn1 |
| 0.26 µM | 11.3 | > 1 µM |  | O=C(Nc1ccc(Cl)cc1CN1C(=O)c2ccccc2C1=O)c1ncccc1O |
| 5.7 µM | 3.5 | > 1 µM |  | O=C(Nc1ccc(Cl)cc1CN1C(=O)c2ccccc2C1=O)c1ccccc1C(F)(F)F |
| 1.5 µM | 2.6 |  |  | O=C(Nc1ccc(F)cc1CN1C(=O)c2ccccc2C1=O)c1ccccn1 |
| 2.1 µM | 1.3 | > 1 µM |  | O=C(Nc1ccc(Cl)cc1CN1C(=O)c2ccccc2C1=O)c1ncccn1 |
| 2.3 µM | 6.2 | > 1 µM |  | O=C(Nc1ccc(Cl)cc1CN1C(=O)c2ccccc2C1=O)c1ccco1 |
